Assay results reported in patent US20020137929A1, “1 - (3-heterocyclylphenyl) isothiourea, -isourea, -guanidine and -amidine herbicidal agents” (Intellectual Property Department, BASF Aktiengesellschaft, priority 1998, published 2002).

Experiments:
[1] = tested on: ECHORC (Watergrass (Calif.)); experiment: Preemergence weed control under flooded paddy conditions; type: in vivo, Echinochloa oryzoides; conditions: rated 3-4 weeks after treatment
Procedure, shortened: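 Seeds or propagules sown in top 0.5 cm of silt loam soil, flooded 1.5 to 3 cm above surface throughout. Compound in 50/50 v/v aqueous/acetone pipetted into flood water at about 0.0313 to 0.500 kg/ha. Visual 0-9 rating versus control after three to four weeks in greenhouse.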

CYPSE (Flatsedge) = experiment: as above; type: in vivo, Cyperus serotinus; conditions: rated 3-4 weeks after treatment
Procedure, shortened: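 Using flooded silt loam (water 1.5 to 3 cm deep), seeds sown in the top 0.5 cm were exposed preemergence to compound pipetted into the flood at about 0.0313 to 0.500 kg/ha. Effects were scored 0-9 by eye three to four weeks later.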

ZEAMX (Corn, Field) [2] = experiment: Preemergence herbicidal evaluation; type: in vivo, Zea mays; conditions: rated 4-5 weeks after treatment
Procedure, shortened: (§1)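 In this greenhouse assay, monocot and dicot seeds are planted in soil and treated prior to emergence with an aqueous acetone spray (about 0.0156-0.500 kg/ha). Plants are assessed visually against control on a 0-9 scale after 4-5 weeks.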

[3] = tested on: IPOHE (Morningglory, Ivyleaf); experiment: Preemergence herbicidal evaluation; type: in vivo, Ipomoea hederacea; conditions: rated 4-5 weeks after treatment
Procedure, shortened: as §1

CASOB (Sicklepod) = experiment: Postemergence herbicidal evaluation; type: in vivo, Cassia obtusifolia; conditions: postemergence
Procedure, shortened: (§2)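 Rate range approx. 0.0156–0.500 kg/ha. Foliar application at 40 psi to ~2-week seedlings; surfactant 0.5% TWEEN 20 in 50/50 acetone/water. Evaluation 4–5 wk post-treatment by 0–9 visual injury score, means of replicate tests.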

ZEAMX (Corn, Field) [4] = experiment: Postemergence herbicidal evaluation; type: in vivo, Zea mays; conditions: postemergence
Procedure, shortened: as §2

ECHCG (Barnyardgrass) = experiment: Preemergence herbicidal evaluation; type: in vivo, Echinochloa crus-galli; conditions: rated 4-5 weeks after treatment
Procedure, shortened: as §1

SETVI (Foxtail, Green) = experiment: Preemergence herbicidal evaluation; type: in vivo, Setaria viridis; conditions: rated 4-5 weeks after treatment
Procedure, shortened: as §1

[5] = tested on: TRZAWR (Wheat, Winter, cv Riband); experiment: Postemergence herbicidal evaluation; type: in vivo, Triticum aestivum; conditions: postemergence
Procedure, shortened: as §2

[6] = tested on: CHEAL (Lambsquarters, Common); experiment: Preemergence herbicidal evaluation; type: in vivo, Chenopodium album; conditions: rated 4-5 weeks after treatment
Procedure, shortened: as §1

AMBEL (Ragweed, Common) = experiment: Preemergence herbicidal evaluation; type: in vivo, Ambrosia artemisifolia; conditions: rated 4-5 weeks after treatment
Procedure, shortened: as §1

GALAP (Galium) = experiment: Preemergence herbicidal evaluation; type: in vivo, Galium aparine; conditions: rated 4-5 weeks after treatment
Procedure, shortened: as §1

| Compound | Preemergence herbicidal rating ZEAMX (ZEAMX (Corn, Field) [2]; rate 0.0625 kg/ha) | Preemergence herbicidal rating ZEAMX (ZEAMX (Corn, Field) [2]; rate 0.1250 kg/ha) | Preemergence herbicidal rating ZEAMX (ZEAMX (Corn, Field) [2]; rate 0.2500 kg/ha) | Preemergence herbicidal rating IPOHE ([3]; rate 0.0625 kg/ha) | Preemergence herbicidal rating IPOHE ([3]; rate 0.1250 kg/ha) | Preemergence herbicidal rating IPOHE ([3]; rate 0.2500 kg/ha) | herbicidal rating CASOB (CASOB (Sicklepod); rate 0.0158 kg/ha) | herbicidal rating CASOB (CASOB (Sicklepod); rate 0.0315 kg/ha) | herbicidal rating CASOB (CASOB (Sicklepod); rate 0.0630 kg/ha) | herbicidal rating ZEAMX (ZEAMX (Corn, Field) [4]; rate 0.0158 kg/ha) | herbicidal rating ZEAMX (ZEAMX (Corn, Field) [4]; rate 0.0315 kg/ha) | herbicidal rating ZEAMX (ZEAMX (Corn, Field) [4]; rate 0.0630 kg/ha) | Preemergence herbicidal rating ECHCG (ECHCG (Barnyardgrass); rate 0.0625 kg/ha) | Preemergence herbicidal rating ECHCG (ECHCG (Barnyardgrass); rate 0.1250 kg/ha) | Preemergence herbicidal rating ECHCG (ECHCG (Barnyardgrass); rate 0.2500 kg/ha) | Preemergence herbicidal rating SETVI (SETVI (Foxtail, Green); rate 0.0625 kg/ha) | Preemergence herbicidal rating SETVI (SETVI (Foxtail, Green); rate 0.1250 kg/ha) | Preemergence herbicidal rating SETVI (SETVI (Foxtail, Green); rate 0.2500 kg/ha) | herbicidal rating TRZAWR ([5]; rate 0.0158 kg/ha) | herbicidal rating TRZAWR ([5]; rate 0.0315 kg/ha) | other results |
| --- | --- | --- | --- | --- | --- | --- | --- | --- | --- | --- | --- | --- | --- | --- | --- | --- | --- | --- | --- | --- | --- |
| CCOC(=O)CN1C(=O)C(CC(=O)O)SC1=Nc1cc(-n2nc(C)n(C(F)F)c2=O)c(F)cc1Cl (centres unmarked) [Compound 112, 2-{{2-Chloro-5-[4-(difluoromethyl)-4,5-dihydro-3-methyl-5-oxo-1H-1,2,4-triazol-1-yl]-4-fluorophenyl}imino}-4-oxo-3,5-thiazolidinediacetic acid, 3-ethyl ester] | 0.0 | 1.0 | 4.0 | 0.0 | 0.0 | 0.0 | 1.0 | 1.0 | 2.0 | 4.5 | 4.5 | 5.0 | 0.0 | 0.0 | 0.0 | 0.0 | 0.0 | 0.0 | 2.0 | 2.0 | ECHORC herbicidal effect rating ([1]; 0.0313 kg/ha): 0.0; ECHORC herbicidal effect rating ([1]; 0.0625 kg/ha): 3.0; ECHORC herbicidal effect rating ([1]; 0.1250 kg/ha): 3.0; ECHORC herbicidal effect rating ([1]; 0.2500 kg/ha): 3.0; CYPSE herbicidal effect rating (CYPSE (Flatsedge); 0.0313 kg/ha): 0.0; Preemergence herbicidal rating ZEAMX (ZEAMX (Corn, Field) [2]; rate 0.0313 kg/ha): 0.0; Preemergence herbicidal rating IPOHE ([3]; rate 0.0313 kg/ha): 0.0; Preemergence herbicidal rating ECHCG (ECHCG (Barnyardgrass); rate 0.0313 kg/ha): 0.0; Preemergence herbicidal rating SETVI (SETVI (Foxtail, Green); rate 0.0313 kg/ha): 1.0; herbicidal rating TRZAWR ([5]; rate 0.0630 kg/ha): 3.0; Preemergence herbicidal rating CHEAL ([6]; rate 0.2500 kg/ha): 1.0; Preemergence herbicidal rating AMBEL (AMBEL (Ragweed, Common); rate 0.0313 kg/ha): 0.0; Preemergence herbicidal rating AMBEL (AMBEL (Ragweed, Common); rate 0.0625 kg/ha): 0.0; Preemergence herbicidal rating AMBEL (AMBEL (Ragweed, Common); rate 0.1250 kg/ha): 0.0; Preemergence herbicidal rating AMBEL (AMBEL (Ragweed, Common); rate 0.2500 kg/ha): 0.0; Preemergence herbicidal rating GALAP (GALAP (Galium); rate 0.0313 kg/ha): 0.0; Preemergence herbicidal rating GALAP (GALAP (Galium); rate 0.0625 kg/ha): 0.0; Preemergence herbicidal rating GALAP (GALAP (Galium); rate 0.1250 kg/ha): 0.0; Preemergence herbicidal rating GALAP (GALAP (Galium); rate 0.2500 kg/ha): 0.0 |
| C=CCN1C(=O)C(CC(=O)NS(=O)(=O)C(C)C)SC1=Nc1cc(-n2c(=O)cc(C(F)(F)F)n(C)c2=O)c(F)cc1Cl (centres unmarked) [Compound 118, 3-Allyl-2-{{2-chloro-5-[3,6-dihydro-3-methyl-2,6-dioxo-4-(trifluoromethyl)-1(2H)-pyrimidinyl]-4-fluorophenyl}imino}-N-(isopropylsulfonyl)-4-oxo-5-thiazolidineacetamide] | 0.0 | 0.0 | 0.0 | 0.0 | 1.0 | 6.0 | 0.0 | 0.0 | 0.0 | 3.5 | 4.0 | 4.5 | 0.0 | 0.0 | 0.0 | 0.0 | 0.0 | 2.0 | 2.0 | 2.0 | herbicidal effect rating, ECHORC ([1]; 0.0313 kg/ha): 0.0; herbicidal effect rating, ECHORC ([1]; 0.0625 kg/ha): 0.0; herbicidal effect rating, ECHORC ([1]; 0.1250 kg/ha): 4.0; herbicidal effect rating, ECHORC ([1]; 0.2500 kg/ha): 6.0; herbicidal effect rating, CYPSE (CYPSE (Flatsedge); 0.0313 kg/ha): 0.0; herbicidal effect rating, CYPSE (CYPSE (Flatsedge); 0.0625 kg/ha): 0.0; herbicidal effect rating, CYPSE (CYPSE (Flatsedge); 0.1250 kg/ha): 0.0; herbicidal effect rating, CYPSE (CYPSE (Flatsedge); 0.2500 kg/ha): 0.0; herbicidal rating TRZAWR ([5]; rate 0.0630 kg/ha): 2.0; Preemergence herbicidal rating CHEAL ([6]; rate 0.0625 kg/ha): 6.0; Preemergence herbicidal rating CHEAL ([6]; rate 0.1250 kg/ha): 9.0; Preemergence herbicidal rating CHEAL ([6]; rate 0.2500 kg/ha): 9.0; Preemergence herbicidal rating AMBEL (AMBEL (Ragweed, Common); rate 0.0625 kg/ha): 0.0; Preemergence herbicidal rating AMBEL (AMBEL (Ragweed, Common); rate 0.1250 kg/ha): 0.0; Preemergence herbicidal rating AMBEL (AMBEL (Ragweed, Common); rate 0.2500 kg/ha): 6.0; Preemergence herbicidal rating GALAP (GALAP (Galium); rate 0.0625 kg/ha): 1.0; Preemergence herbicidal rating GALAP (GALAP (Galium); rate 0.1250 kg/ha): 6.0; Preemergence herbicidal rating GALAP (GALAP (Galium); rate 0.2500 kg/ha): 7.0 |
